Laboratory results as given in publication PMC4696656, “Insights into the Mechanism of Action of Bactericidal Lipophosphonoxins” (PLoS ONE, 2015).
≈ marks a conversion by molar mass, not a printed value. Where “and” joins values, the source holds several entries; their conditions need not be identical. Equal values may be shown once. Read-outs that look alike come from different tables or passages of the source.

What was measured:
[1] = test system: Clostridium perfringens CCM 4435; experiment: microbe, parasite or virus in culture; format: cell-based; conditions: CCM4435
[2] = test system: Bacteroides fragilis CCM 4712; experiment: MIC against anaerobic bacteria, tube dilution method; format: cell-based; conditions: CCM4712, anaerobic conditions, 35°C, 48 h (confirmed 72 h)
[3] = test system: Peptostreptococcus anaerobius; experiment: as above; format: cell-based; conditions: anaerobic conditions, 35°C, 48 h (confirmed 72 h)
[4] = Carboxyfluorescein leakage assay, LUV from bacterial lipids; format: biochemical, Bacillus subtilis; conditions: for Hill coefficient n, rapid initial phase of CF release: LPPO 0.8 mg/L, 60 μM phospholipid, 25°C
Experimental: Bacterial phospholipids were extracted with hexane/2-propanol (3:2, v/v) mixture from B. subtilis 168 cell biomass (2000 ml of culture in LB medium) harvested in exponential phase by rapid filtration (Synpor no. 5 filter, Pragochema, Czech Republic). Phospholipids from human erythrocytes (0.5 ml, volunteer blood donor) were extracted with chloroform/2-propanol mixture (7:11, v/v) after hemolysis using distilled water. After evaporation of the solvent in vaccuo at 40°C, the phospholipids were dissolved in chloroform, filtered through glass fiber filters (Whatman) and concentrated under a stream of nitrogen. The lipid samples were stored at -80°C and used for liposome preparation.
Vesicles to be used in the carboxyfluorescein (CF) leakage assay were prepared by mixing the appropriate amount of lipids (1 mg/ml) with chloroform/methanol 2:1 (v/v). The solvent was subsequently evaporated under a nitrogen gas stream obtaining a thin film on the walls of a glass tube. The hydration procedure in a buffer containing 50 mM CF, 5 mM HEPES pH 7.4 lasted for 60 min at 40°C, interrupted by thorough vortexing to form multilamellar vesicles. Large unilamellar vesicles (LUV) were prepared by repeated extrusion of the multilamellar vesicles through 100 nm polycarbonate filters (Avestin) using the LiposoFast Basic apparatus (Avestin, Canada). Vesicles were separated from nonencapsulated dye by gel filtration on Sephadex G-50 using 100 mM NaCl, 0.5 mM Na2EDTA and 5 mM HEPES, pH 7.4 as elution buffer. Fractions with the highest content of the entrapped dye were pooled and dissolved in the same buffer to the final phospholipid concentration of 60 μM.
The release of vesicle contents after adding LPPO solutions was evaluated by the increased fluorescence intensity of CF released into the milieu which we express as the percentage of leakage. […] Maximum release of CF fluorescence (F max) was induced by lysing the vesicles with 0.1% (v/v) Triton X-100. Fluorescence intensity was monitored in time (excitation at 480 nm, emission at 515 nm) at 25°C using FluoroMax-3 (Jobin Yvon, Horriba) spectrofluorometer. The following equation was used to calculate the percent of CF leakage: % CF leakage = [(F–F 0)/(F max−F 0)] × 100, where F is the actual fluorescence intensity and F 0 is the fluorescence intensity before addition of the permeabilizing agent. Using Fityk software the time courses of liposome lysis were fitted by a function: α(1-exp(-t/τ))^n, where t is the time, α is the amplitude of the effect, τ is the time constant of the effect, and n is Hill coefficient (S3 Fig).

[5] = Conductance measurements in planar lipid membranes (BLM); format: biochemical; conditions: 5 mg/L, 1M KCl, 10 mM Tris, pH 7.4, 45 mV
Experimental: A Teflon chamber was divided into two compartments connected by a circular aperture of about 0.5 mm in diameter. Black lipid bilayer membranes were formed by painting a solution of 3% (w/v) asolectin (type IIS phosphatidylcholine; Sigma-Aldrich) in n-decane/butanol (9:1, v/v) across the hole. Both compartments contained 2 ml of 10 mM Tris, 1M KCl, pH 7.4. The temperature was kept at 25°C. Tested LPPO was added to the cis side of the membrane at a concentration of 5 mg/L. The membrane current was measured with Ag/AgCl electrodes (Theta) with salt bridges (applied voltage 45 mV, cis positive), amplified by LCA-200-100G or LCA-4k-1G amplifier (Femto) and digitized by KPCI-3108 card (Keithly). The signal was processed by QuB software. The histograms of single pore conductance was calculated from at least 500 events using a 50 pS bin size and fitted with Gaussian functions using Fityk software.

Solubility in water = format: physicochemical
[6] = test system: Salmonella typhimurium TA98 and TA100; experiment: Ames test for genotoxicity (Salmonella/microsome reversion assay, without S9); format: cell-based; conditions: at relevant concentrations, without metabolic activation
Experimental: The Salmonella/microsome reversion assay was conducted using the plate incorporation procedure described by Marona and Ames. The Ames test was performed utilizing two different bacterial strains of Salmonella typhimurium: strain TA98 for frame-shift mutations and strain TA100 for base-pair substitution. All strains were maintained and stored according to the standard procedures. All samples were tested without metabolic activation (S9) to detect direct mutagenic compounds. The test was performed with plate incorporation method in duplicate at the increasing concentrations. The plates were incubated at 37°C for 72 h in the dark. The number of his+ revertants was estimated with the counter. Results were expressed as mutation ratios (Φ) calculated as the number of colonies on test plates/number of colonies on solvent control plates. A compound is considered mutagenic when Φ is more than 2 and a dose–response effect is evident.

[7] = test system: Enterococcus faecalis CCM 4224; experiment: Induction of resistance by repeated passages, MIC after each step; format: cell-based
[8] = test system: Enterococcus faecalis CCM 4224; experiment: MIC, standard microdilution method; conditions: CCM4224, 24 h
[9] = test system: Staphylococcus aureus CCM 4223; experiment: MIC, standard microdilution method; conditions: CCM4223, 24 h
Bacillus subtilis = experiment: MIC, standard microdilution method; conditions: Bacillus subtilis
S. aureus MRSA 4591 = experiment: MIC, standard microdilution method; conditions: Staphylococcus aureus, 24 h
[10] = test system: Staphylococcus haemolyticus 16568; experiment: MIC, standard microdilution method; conditions: Staphylococcus haemolyticus, 16568, 24 h
[11] = test system: Staphylococcus epidermidis 8700/B; experiment: MIC, standard microdilution method; conditions: 24 h
[12] = CCM4224, read-out: MIC after induction step, step 1
[13] = CCM4224, read-out: MIC after induction step, step 2
[14] = CCM4224, read-out: MIC after induction step, step 3
[15] = CCM4224, read-out: MIC after induction step, step 4
[16] = CCM4224, read-out: MIC after induction step, step 5
[17] = CCM4224, read-out: MIC after induction step, step 6
[18] = CCM4224, read-out: MIC after induction step, step 7
[19] = CCM4224, read-out: MIC after induction step, step 8
[20] = CCM4224, read-out: MIC after induction step, step 9
[21] = CCM4224, read-out: MIC after induction step, step 10
[22] = CCM4224, read-out: MIC after induction step, step 11
[23] = CCM4224, read-out: MIC after induction step, step 12
[24] = CCM4224, read-out: MIC after induction step, step 13
[25] = CCM4224, read-out: MIC after induction step, step 14

CCCCCCCCCCCCCCCCOP(=O)(CCN1C[C@@H](O)[C@H](O)C1)OC[C@H]1O[C@@H](n2ccc(=O)[nH]c2=O)[C@H](O)[C@@H]1O (some centres unmarked) [DR5026]
MIC [1]: 12.5 µg/mL (≈ 18.9 µM) | MIC [2]: 12.5 µg/mL (≈ 18.9 µM) | MIC [3]: 1.56 µg/mL (≈ 2.36 µM) | Hill coefficient n, rapid initial phase of CF release [4]: 0.5 ± 0.2 | fit Hill coefficient n, initial phase f(x) ([4]; S3 Fig data set): 0.6 | fit Hill coefficient n, latter phase g(x) ([4]; S3 Fig data set): 3.1 | fit amplitude α, initial phase f(x) of liposome lysis ([4]; S3 Fig data set): 29.7 | fit amplitude α, latter phase g(x) of liposome lysis ([4]; S3 Fig data set): 76.4 | fit time constant τ, initial phase f(x) ([4]; S3 Fig data set): 175.5 s | fit time constant τ, latter phase g(x) ([4]; S3 Fig data set): 28.2 s | most frequent single pore conductance step [5]: 310 ± 128 pS | solubility (Solubility in water): > 10000 µg/mL | genotoxicity (mutagenic potential) [6]: Neither of the two compounds was found to be genotoxic | MIC [7, 12]: 6.2 µg/mL (≈ 9.37 µM) | MIC [7, 13]: 6.2 µg/mL (≈ 9.37 µM) | MIC [7, 14]: 6.2 µg/mL (≈ 9.37 µM) | MIC [7, 15]: 6.2 µg/mL (≈ 9.37 µM) | MIC [7, 16]: 6.2 µg/mL (≈ 9.37 µM) | MIC [7, 17]: 12.5 µg/mL (≈ 18.9 µM) | MIC [7, 18]: 12.5 µg/mL (≈ 18.9 µM) | MIC [7, 19]: 12.5 µg/mL (≈ 18.9 µM) | MIC [7, 20]: 12.5 µg/mL (≈ 18.9 µM) | MIC [7, 21]: 12.5 µg/mL (≈ 18.9 µM) | MIC [7, 22]: 12.5 µg/mL (≈ 18.9 µM) | MIC [7, 23]: 12.5 µg/mL (≈ 18.9 µM) | MIC [7, 24]: 12.5 µg/mL (≈ 18.9 µM) | MIC [7, 25]: 12.5 µg/mL (≈ 18.9 µM) | MIC [8]: 3.12 µg/mL (≈ 4.72 µM) | MIC [9]: 25 µg/mL (≈ 37.8 µM) | MIC (Bacillus subtilis; 24 h): 3.12 µg/mL (≈ 4.72 µM) | MIC (Bacillus subtilis; read-out: MIC against wt B. subtilis, B. subtilis 168, as stated for the resistance selection experiment): ~3 µg/mL (≈ 4.53 µM) | MIC (S. aureus MRSA 4591): 25 to 50 µg/mL (≈ 37.8 to 75.6 µM) | MIC [10]: 50 µg/mL (≈ 75.6 µM) | MIC [11]: 3.12 µg/mL (≈ 4.72 µM)

CCCCCCCCCCCCCCCCOCCCOP(=O)(CCN1C[C@@H](O)[C@H](O)C1)OC[C@H]1O[C@@H](n2ccc(=O)[nH]c2=O)[C@H](O)[C@@H]1O (some centres unmarked) [DR5047]
MIC [1]: 12.5 µg/mL (≈ 17.4 µM) | MIC [2]: 6.25 µg/mL (≈ 8.68 µM) | MIC [3]: 1.56 µg/mL (≈ 2.17 µM) | Hill coefficient n, rapid initial phase of CF release [4]: 0.7 ± 0.1 | further conductance states observed [5]: 270 ± 79 pS and 510 ± 77 pS | most frequent single pore conductance step [5]: 70 ± 37 pS | solubility (Solubility in water): > 10000 µg/mL | genotoxicity (mutagenic potential) [6]: Neither of the two compounds was found to be genotoxic | MIC [7, 12]: 12.5 µg/mL (≈ 17.4 µM) | MIC [7, 13]: 12.5 µg/mL (≈ 17.4 µM) | MIC [7, 14]: 12.5 µg/mL (≈ 17.4 µM) | MIC [7, 15]: 12.5 µg/mL (≈ 17.4 µM) | MIC [7, 16]: 25 µg/mL (≈ 34.7 µM) | MIC [7, 17]: 25 µg/mL (≈ 34.7 µM) | MIC [7, 18]: 25 µg/mL (≈ 34.7 µM) | MIC [7, 19]: 25 µg/mL (≈ 34.7 µM) | MIC [7, 20]: 25 µg/mL (≈ 34.7 µM) | MIC [7, 21]: 50 µg/mL (≈ 69.5 µM) | MIC [7, 22]: 25 µg/mL (≈ 34.7 µM) | MIC [7, 23]: 25 µg/mL (≈ 34.7 µM) | MIC [7, 24]: 25 µg/mL (≈ 34.7 µM) | MIC [7, 25]: 25 µg/mL (≈ 34.7 µM) | MIC [8]: 6.25 µg/mL (≈ 8.68 µM) | MIC [9]: > 200 µg/mL | MIC (Bacillus subtilis; 24 h, 35°C, brain heart infusion broth): 6.25 µg/mL (≈ 8.68 µM) | MIC (S. aureus MRSA 4591): > 200 µg/mL | MIC [10]: > 200 µg/mL | MIC [11]: 3.12 µg/mL (≈ 4.34 µM)
